Activity calls are given as the source filed them.
Assays:
[1] = biological target: Tyrosine-protein kinase JAK2 (Homo sapiens, UniProt O60674)
[2] = biological target: T1, Dual specificity mitogen-activated protein kinase kinase 4 (Homo sapiens, UniProt P45985)
T1 sequence (P45985 whole entry): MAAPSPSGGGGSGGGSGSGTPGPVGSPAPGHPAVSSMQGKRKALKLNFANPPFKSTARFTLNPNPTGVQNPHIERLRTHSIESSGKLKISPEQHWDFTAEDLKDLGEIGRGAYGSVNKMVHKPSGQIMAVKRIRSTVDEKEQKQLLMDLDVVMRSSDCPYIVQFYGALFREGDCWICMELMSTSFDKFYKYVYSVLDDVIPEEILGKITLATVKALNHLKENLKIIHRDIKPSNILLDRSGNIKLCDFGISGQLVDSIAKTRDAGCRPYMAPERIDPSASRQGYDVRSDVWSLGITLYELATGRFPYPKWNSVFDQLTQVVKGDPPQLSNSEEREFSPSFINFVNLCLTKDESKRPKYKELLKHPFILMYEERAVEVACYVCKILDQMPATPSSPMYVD

[3] = biological target: T2, General transcription and DNA repair factor IIH helicase subunit XPD (Homo sapiens, UniProt P18074)
T2 sequence (P18074 whole entry): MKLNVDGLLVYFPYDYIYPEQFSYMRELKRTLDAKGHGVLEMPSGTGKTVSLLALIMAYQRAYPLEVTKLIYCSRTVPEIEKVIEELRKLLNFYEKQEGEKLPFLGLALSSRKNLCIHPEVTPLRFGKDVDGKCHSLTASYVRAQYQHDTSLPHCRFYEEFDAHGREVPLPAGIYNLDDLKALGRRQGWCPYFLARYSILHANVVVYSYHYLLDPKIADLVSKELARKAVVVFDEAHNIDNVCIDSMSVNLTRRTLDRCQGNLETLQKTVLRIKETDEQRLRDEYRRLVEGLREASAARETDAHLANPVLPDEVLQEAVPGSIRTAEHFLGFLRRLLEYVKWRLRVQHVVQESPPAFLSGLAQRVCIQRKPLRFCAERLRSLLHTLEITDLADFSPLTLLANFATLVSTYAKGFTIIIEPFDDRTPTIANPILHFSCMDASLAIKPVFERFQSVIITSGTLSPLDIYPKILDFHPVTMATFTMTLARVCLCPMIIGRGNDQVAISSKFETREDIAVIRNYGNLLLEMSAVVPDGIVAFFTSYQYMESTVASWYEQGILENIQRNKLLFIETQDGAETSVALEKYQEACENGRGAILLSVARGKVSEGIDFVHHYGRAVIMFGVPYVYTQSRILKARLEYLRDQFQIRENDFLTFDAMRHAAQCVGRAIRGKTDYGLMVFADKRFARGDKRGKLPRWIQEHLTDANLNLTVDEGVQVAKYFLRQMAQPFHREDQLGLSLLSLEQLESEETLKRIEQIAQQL

[4] = biological target: 5'-AMP-activated protein kinase subunit gamma-1 (Homo sapiens, UniProt P54619)
Chain of 5'-AMP-activated protein kinase subunit gamma-1 (P54619 whole entry): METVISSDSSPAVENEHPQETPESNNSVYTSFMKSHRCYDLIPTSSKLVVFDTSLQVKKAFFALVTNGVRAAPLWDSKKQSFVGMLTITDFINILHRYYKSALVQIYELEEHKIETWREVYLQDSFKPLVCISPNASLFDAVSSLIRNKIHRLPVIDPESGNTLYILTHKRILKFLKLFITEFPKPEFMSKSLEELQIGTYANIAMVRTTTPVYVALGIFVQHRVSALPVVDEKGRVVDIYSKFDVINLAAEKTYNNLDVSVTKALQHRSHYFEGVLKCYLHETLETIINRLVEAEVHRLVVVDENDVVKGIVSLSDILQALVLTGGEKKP

[5] = biological target: 5'-AMP-activated protein kinase subunit gamma-2 (Homo sapiens, UniProt Q9UGJ0)
Chain of 5'-AMP-activated protein kinase subunit gamma-2 (Q9UGJ0 whole entry): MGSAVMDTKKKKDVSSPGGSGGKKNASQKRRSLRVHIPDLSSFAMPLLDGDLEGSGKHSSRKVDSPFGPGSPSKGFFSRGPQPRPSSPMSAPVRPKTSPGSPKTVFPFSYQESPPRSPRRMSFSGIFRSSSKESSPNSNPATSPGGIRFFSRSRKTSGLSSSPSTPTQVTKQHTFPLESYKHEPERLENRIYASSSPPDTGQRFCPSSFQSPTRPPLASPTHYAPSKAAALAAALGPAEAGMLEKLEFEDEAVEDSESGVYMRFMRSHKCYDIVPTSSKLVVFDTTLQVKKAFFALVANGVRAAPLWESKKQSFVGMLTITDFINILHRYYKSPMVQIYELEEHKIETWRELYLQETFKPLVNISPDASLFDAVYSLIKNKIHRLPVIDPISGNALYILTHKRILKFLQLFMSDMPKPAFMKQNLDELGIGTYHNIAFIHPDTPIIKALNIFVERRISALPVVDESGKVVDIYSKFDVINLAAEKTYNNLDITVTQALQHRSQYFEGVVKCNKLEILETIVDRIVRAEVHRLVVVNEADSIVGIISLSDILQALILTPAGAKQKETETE

[6] = biological target: T3, Uncharacterized protein FLJ45252 (Homo sapiens, UniProt Q6ZSR9)
T3 sequence (Q6ZSR9 whole entry): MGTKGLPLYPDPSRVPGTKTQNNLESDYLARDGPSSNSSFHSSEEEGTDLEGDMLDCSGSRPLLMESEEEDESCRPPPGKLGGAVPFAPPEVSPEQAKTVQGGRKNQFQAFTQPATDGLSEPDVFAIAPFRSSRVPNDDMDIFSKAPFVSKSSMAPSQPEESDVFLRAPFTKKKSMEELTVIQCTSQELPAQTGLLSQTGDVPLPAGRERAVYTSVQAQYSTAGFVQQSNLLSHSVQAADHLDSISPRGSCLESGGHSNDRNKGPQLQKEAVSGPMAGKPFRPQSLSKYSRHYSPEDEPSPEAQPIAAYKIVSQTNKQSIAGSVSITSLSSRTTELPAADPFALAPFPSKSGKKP

[7] = biological target: Dual specificity tyrosine-phosphorylation-regulated kinase 1B (Homo sapiens, UniProt Q9Y463)
Chain of Dual specificity tyrosine-phosphorylation-regulated kinase 1B (Q9Y463 whole entry): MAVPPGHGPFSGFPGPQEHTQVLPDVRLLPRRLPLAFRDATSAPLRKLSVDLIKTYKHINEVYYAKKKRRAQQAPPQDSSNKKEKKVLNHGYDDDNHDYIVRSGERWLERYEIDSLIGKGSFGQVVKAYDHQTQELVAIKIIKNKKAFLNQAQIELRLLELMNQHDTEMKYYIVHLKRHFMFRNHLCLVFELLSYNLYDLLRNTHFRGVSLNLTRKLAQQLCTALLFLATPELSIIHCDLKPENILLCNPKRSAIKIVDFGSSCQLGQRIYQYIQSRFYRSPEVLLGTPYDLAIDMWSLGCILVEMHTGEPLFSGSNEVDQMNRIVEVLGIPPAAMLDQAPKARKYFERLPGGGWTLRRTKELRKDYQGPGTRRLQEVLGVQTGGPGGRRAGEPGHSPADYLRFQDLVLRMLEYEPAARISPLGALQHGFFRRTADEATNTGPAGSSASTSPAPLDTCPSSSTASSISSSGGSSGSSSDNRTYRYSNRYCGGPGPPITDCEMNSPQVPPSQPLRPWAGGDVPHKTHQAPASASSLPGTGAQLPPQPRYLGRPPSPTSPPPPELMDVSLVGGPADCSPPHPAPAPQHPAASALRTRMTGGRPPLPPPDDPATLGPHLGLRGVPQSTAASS

[8] = biological target: ALK tyrosine kinase receptor (Homo sapiens, UniProt Q9UM73); assay type: subcellular, K-562, COLO 205, SK-N-BE(2) and MV-4-11, Cell lysate; conditions: read-out: Kd apparent
Chain of ALK tyrosine kinase receptor (Q9UM73 whole entry): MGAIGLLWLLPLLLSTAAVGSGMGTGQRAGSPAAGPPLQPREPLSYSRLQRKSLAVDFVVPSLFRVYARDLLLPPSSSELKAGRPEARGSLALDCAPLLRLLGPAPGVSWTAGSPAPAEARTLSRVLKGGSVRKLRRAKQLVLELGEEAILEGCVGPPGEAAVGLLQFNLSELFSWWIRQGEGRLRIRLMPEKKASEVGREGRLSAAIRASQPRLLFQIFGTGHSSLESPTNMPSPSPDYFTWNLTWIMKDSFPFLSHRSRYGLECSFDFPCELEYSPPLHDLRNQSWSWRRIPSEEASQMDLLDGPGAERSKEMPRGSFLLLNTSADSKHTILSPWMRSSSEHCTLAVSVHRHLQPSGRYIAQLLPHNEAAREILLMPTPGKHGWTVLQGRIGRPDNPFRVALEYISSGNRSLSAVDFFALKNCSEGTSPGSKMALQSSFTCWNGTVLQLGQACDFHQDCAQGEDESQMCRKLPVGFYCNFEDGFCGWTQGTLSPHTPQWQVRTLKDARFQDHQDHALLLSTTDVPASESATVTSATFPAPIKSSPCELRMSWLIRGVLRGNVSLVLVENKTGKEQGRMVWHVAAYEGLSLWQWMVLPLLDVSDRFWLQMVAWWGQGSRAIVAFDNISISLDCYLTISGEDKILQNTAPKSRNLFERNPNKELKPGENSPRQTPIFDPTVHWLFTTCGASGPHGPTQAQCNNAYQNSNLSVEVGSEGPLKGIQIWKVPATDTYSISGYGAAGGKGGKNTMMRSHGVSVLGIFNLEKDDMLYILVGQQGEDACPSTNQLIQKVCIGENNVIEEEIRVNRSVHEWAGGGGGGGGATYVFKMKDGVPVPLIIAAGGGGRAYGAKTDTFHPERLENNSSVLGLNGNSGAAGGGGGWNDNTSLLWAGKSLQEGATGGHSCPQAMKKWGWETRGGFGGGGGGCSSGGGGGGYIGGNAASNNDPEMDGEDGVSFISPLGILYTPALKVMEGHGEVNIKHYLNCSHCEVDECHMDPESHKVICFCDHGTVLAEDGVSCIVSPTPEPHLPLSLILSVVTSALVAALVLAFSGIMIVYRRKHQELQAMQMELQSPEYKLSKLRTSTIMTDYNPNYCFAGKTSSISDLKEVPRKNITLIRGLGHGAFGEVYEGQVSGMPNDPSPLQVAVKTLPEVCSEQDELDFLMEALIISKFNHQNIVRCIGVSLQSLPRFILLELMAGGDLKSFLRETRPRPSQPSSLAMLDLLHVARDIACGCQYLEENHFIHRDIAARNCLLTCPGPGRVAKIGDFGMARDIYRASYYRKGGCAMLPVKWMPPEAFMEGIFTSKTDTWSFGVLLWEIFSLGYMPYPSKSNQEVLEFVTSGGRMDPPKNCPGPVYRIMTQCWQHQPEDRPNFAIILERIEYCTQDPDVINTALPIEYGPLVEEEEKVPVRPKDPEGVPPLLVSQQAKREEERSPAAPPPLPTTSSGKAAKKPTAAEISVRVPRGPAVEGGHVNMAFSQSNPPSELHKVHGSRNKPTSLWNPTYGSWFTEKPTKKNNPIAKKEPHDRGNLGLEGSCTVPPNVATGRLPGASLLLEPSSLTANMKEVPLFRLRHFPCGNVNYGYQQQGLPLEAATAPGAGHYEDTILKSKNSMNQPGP

[9] = biological target: Actin-related protein 3 (Homo sapiens, UniProt P61158)
[10] = biological target: Activin receptor type-1-like (Homo sapiens, UniProt P37023)
Chain of Activin receptor type-1-like (P37023 whole entry): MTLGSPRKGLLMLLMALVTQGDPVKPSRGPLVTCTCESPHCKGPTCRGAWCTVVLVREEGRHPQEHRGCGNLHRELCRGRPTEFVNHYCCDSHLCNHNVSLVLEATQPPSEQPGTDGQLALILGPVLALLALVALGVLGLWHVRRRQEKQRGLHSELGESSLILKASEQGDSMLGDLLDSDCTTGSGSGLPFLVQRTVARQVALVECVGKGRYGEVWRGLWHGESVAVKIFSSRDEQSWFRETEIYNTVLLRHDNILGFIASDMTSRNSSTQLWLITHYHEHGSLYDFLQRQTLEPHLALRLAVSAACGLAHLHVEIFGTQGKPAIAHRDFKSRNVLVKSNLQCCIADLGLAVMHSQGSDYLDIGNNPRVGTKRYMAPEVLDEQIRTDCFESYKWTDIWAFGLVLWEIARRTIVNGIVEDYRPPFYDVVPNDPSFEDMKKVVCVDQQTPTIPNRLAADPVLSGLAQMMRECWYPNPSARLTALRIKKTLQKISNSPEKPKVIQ

[11] = biological target: Ras-related C3 botulinum toxin substrate 1 (Homo sapiens, UniProt P63000)
[12] = biological target: Mast/stem cell growth factor receptor Kit (Homo sapiens, UniProt P10721)
[13] = biological target: Cyclin-dependent kinase 18 (Homo sapiens, UniProt Q07002)
Further: in the data inactive means no Kd found up to 30 µM.

Chain of Tyrosine-protein kinase JAK2 (O60674 whole entry): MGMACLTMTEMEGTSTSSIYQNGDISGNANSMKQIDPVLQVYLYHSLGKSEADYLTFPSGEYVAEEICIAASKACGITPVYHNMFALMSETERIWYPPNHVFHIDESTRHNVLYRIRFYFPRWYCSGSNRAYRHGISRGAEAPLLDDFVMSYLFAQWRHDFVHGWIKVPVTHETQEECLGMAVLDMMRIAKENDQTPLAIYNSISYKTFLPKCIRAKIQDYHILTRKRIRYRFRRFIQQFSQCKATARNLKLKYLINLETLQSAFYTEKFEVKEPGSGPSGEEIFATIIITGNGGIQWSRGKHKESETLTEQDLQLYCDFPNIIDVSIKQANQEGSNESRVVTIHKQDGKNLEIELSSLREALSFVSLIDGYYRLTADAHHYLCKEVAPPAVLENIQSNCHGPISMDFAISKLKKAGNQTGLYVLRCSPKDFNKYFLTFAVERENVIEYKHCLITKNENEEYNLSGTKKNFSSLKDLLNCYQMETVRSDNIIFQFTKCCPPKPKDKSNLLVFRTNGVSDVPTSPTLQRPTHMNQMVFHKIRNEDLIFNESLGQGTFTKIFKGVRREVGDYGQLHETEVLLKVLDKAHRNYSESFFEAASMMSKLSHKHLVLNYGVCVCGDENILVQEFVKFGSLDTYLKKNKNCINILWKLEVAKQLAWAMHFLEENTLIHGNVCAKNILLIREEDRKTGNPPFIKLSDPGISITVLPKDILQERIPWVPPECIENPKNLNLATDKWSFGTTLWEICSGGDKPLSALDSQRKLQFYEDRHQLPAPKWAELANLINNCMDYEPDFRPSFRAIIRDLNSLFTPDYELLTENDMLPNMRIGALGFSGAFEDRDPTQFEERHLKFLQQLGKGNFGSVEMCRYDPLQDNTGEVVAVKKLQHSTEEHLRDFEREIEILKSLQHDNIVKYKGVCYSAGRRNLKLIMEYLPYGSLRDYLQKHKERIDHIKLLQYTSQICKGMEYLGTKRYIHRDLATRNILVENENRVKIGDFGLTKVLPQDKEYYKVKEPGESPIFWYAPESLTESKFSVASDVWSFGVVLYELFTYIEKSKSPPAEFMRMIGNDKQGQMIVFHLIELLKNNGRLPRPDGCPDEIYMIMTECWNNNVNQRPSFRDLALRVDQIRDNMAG

Structure (SMILES): CNS(=O)(=O)Nc1nccc(Cc2c(C)c3ccc(Oc4ncccn4)cc3oc2=O)c1F [AVUTOMETINIB]
- Kd [1]: > 30 µM (inactive)
- Kd [2]: > 30 µM (inactive)

Structure (SMILES): CN(C)C(=O)c1cc2cnc(Nc3ccc(N4CCNCC4)cn3)nc2n1C1CCCC1 [RIBOCICLIB]
- Kd [2]: > 30 µM (inactive)

Structure (SMILES): CCc1cnn2c(NCc3ccc[n+]([O-])c3)cc(N3CCCC[C@H]3CCO)nc12 [DINACICLIB]
- Kd [3]: 0.56 µM (active)
- Kd [2]: > 30 µM (inactive)
- Kd [4]: > 30 µM (inactive)
- Kd [5]: > 30 µM (inactive)
- Kd [6]: > 30 µM (inactive)

Structure (SMILES): COc1ccc(-c2ccc3c(N4CCOC[C@@H]4C)nc(N4CCOC[C@@H]4C)nc3n2)cc1CO [AZD-8055]
- Kd [7]: > 30 µM (inactive)
- Kd [2]: > 30 µM (inactive)

Structure (SMILES): COc1cc2nccc(Oc3ccc(NC(=O)Nc4cc(C)on4)c(Cl)c3)c2cc1OC [TIVOZANIB]
- Kd [2]: > 30 µM (inactive)

Structure (SMILES): CNC(=O)CN1CCC(Oc2cc3c(Nc4cccc(Cl)c4F)ncnc3cc2OC)CC1 [SAPITINIB]
- Kd [2]: > 30 µM (inactive)

Structure (SMILES): CCCS(=O)(=O)Nc1ccc(F)c(C(=O)c2c[nH]c3ncc(-c4ccc(Cl)cc4)cc23)c1F [VEMURAFENIB]
- Kd [7]: > 30 µM (inactive)
- Kd [1]: > 30 µM (inactive)

Structure (SMILES): COC(=O)[C@@]1(O)C[C@H]2O[C@]1(C)n1c3ccccc3c3c4c(c5c6ccccc6n2c5c31)C(=O)NC4 [K-252A]
- Kd [8]: > 30 µM (inactive)
- Kd [7]: > 30 µM (inactive)
- Kd [2]: > 30 µM (inactive)

Structure (SMILES): CN1CCC(COc2cnc(-c3cccc(Cn4nc(-c5cccc(C#N)c5)ccc4=O)c3)nc2)CC1 [TEPOTINIB]
- Kd [9]: > 30 µM (inactive)
- Kd [2]: > 30 µM (inactive)

Structure (SMILES): CNC(=O)c1ccc(-c2cnc3ncc(Cc4ccc5ncccc5c4)n3n2)cc1F [CAPMATINIB]
- Kd [10]: > 30 µM (inactive)

Structure (SMILES): Cc1cc2c(F)c(Oc3ncnn4cc(OC[C@@H](C)OC(=O)[C@H](C)N)c(C)c34)ccc2[nH]1 [BRIVANIB ALANINATE]
- Kd [7]: > 30 µM (inactive)
- Kd [1]: > 30 µM (inactive)
- Kd [2]: > 30 µM (inactive)

Structure (SMILES): C=CC(=O)N1CCC(Oc2cc3c(Nc4ccc(Cl)c(Cl)c4F)ncnc3cc2OC)CC1 [POZIOTINIB]
- Kd [11]: > 30 µM (inactive)

Structure (SMILES): Cc1ccc(-n2nc(C(C)(C)C)cc2NC(=O)NCc2cc(F)ccc2Oc2ccc3c(cnn3CCO)c2)cc1 [PEXMETINIB]
- Kd [2]: > 30 µM (inactive)

Structure (SMILES): CC[C@H](Nc1ncnc2[nH]cnc12)c1nc2cccc(F)c2c(=O)n1-c1ccccc1 [IDELALISIB]
- Kd [7]: > 30 µM (inactive)
- Kd [3]: > 30 µM (inactive)
- Kd [2]: > 30 µM (inactive)
- Kd [4]: > 30 µM (inactive)
- Kd [5]: > 30 µM (inactive)
- Kd [6]: > 30 µM (inactive)

Structure (SMILES): Cc1cn(-c2cc(NC(=O)c3ccc(C)c(Nc4nccc(-c5cccnc5)n4)c3)cc(C(F)(F)F)c2)cn1 [NILOTINIB]
- Kd [11]: > 30 µM (inactive)

Structure (SMILES): O=C1NC(=O)/C(=C/c2ccc3nccc(-c4ccncc4)c3c2)S1 [GSK-1059615]
- Kd [8]: > 30 µM (inactive)
- Kd [7]: > 30 µM (inactive)
- Kd [1]: > 30 µM (inactive)
- Kd [12]: > 30 µM (inactive)

Structure (SMILES): CNC(=O)c1cc(Oc2ccc(NC(=O)Nc3ccc(Cl)c(C(F)(F)F)c3)c(F)c2)ccn1 [REGORAFENIB]
- Kd [3]: > 30 µM (inactive)
- Kd [4]: > 30 µM (inactive)
- Kd [5]: > 30 µM (inactive)
- Kd [6]: > 30 µM (inactive)

Structure (SMILES): CN1N=C(N)c2cn([C@@H]3O[C@H](COP(=O)(O)O)[C@@H](O)[C@H]3O)c3ncnc1c23 [TRICIRIBINE PHOSPHATE]
- Kd [7]: > 30 µM (inactive)

Structure (SMILES): Cc1cc(Nc2cc(N3CCN(C)CC3)nc(/C=C/c3ccccc3)n2)n[nH]1 [ENMD-2076]
- Kd [10]: > 30 µM (inactive)
- Kd [2]: > 30 µM (inactive)

Structure (SMILES): OCCn1cc(-c2cnc3nnn(Cc4ccc5ncccc5c4)c3n2)cn1 [PF-04217903]
- Kd [2]: > 30 µM (inactive)

Structure (SMILES): CC(C)Nc1cc(-c2c[nH]c(C(=O)N[C@H](CO)c3cccc(Cl)c3)c2)c(Cl)cn1 [ULIXERTINIB]
- Kd [7]: > 30 µM (inactive)
- Kd [2]: > 30 µM (inactive)

Structure (SMILES): CC[C@@H]1C(=O)N(C)c2cnc(Nc3ccc(C(=O)N[C@H]4CC[C@H](N5CCN(CC6CC6)CC5)CC4)cc3OC)nc2N1C(C)C [VOLASERTIB]
- Kd [3]: > 30 µM (inactive)
- Kd [1]: > 30 µM (inactive)
- Kd [4]: > 30 µM (inactive)
- Kd [5]: > 30 µM (inactive)
- Kd [6]: > 30 µM (inactive)

Structure (SMILES): O=C(Nc1cccc(Cl)c1)Nc1ncc(CCNc2ncnc3ccsc23)s1 [SNS-314]
- Kd [2]: > 30 µM (inactive)

Structure (SMILES): CN1CC[C@@H](c2c(O)cc(O)c3c(=O)cc(-c4ccccc4Cl)oc23)[C@@H]1CO
- Kd [11]: > 30 µM (inactive)

Structure (SMILES): Cc1ccc(S(=O)(=O)Nc2nc3ccccc3nc2Nc2ccc3nsnc3c2)cc1
- Kd [8]: > 30 µM (inactive)

Structure (SMILES): Cc1nc(N)sc1-c1ccnc(Nc2ccc(N3CCOCC3)cc2)n1 [CYC-116]
- Kd [2]: > 30 µM (inactive)

Structure (SMILES): COc1cc2nccc(Oc3ccc(NC(=O)NC4CC4)c(Cl)c3)c2cc1C(N)=O [LENVATINIB]
- Kd [1]: > 30 µM (inactive)

Structure (SMILES): COC(=O)N[C@@H](C)CNc1nccc(-c2cn(C(C)C)nc2-c2cc(Cl)cc(NS(C)(=O)=O)c2F)n1 [ENCORAFENIB]
- Kd [7]: > 30 µM (inactive)
- Kd [1]: > 30 µM (inactive)

Structure (SMILES): COCCNCc1ccc(-c2cc3nccc(Oc4ccc(NC(=S)NC(=O)Cc5ccc(F)cc5)cc4F)c3s2)nc1 [GLESATINIB]
- Kd [2]: > 30 µM (inactive)

Structure (SMILES): CCS(=O)(=O)N1CC(CC#N)(n2cc(-c3ncnc4[nH]ccc34)cn2)C1 [BARICITINIB]
- Kd [10]: > 30 µM (inactive)

Structure (SMILES): CCN1CCN(Cc2ccc(-c3cc4c(N[C@H](C)c5ccccc5)ncnc4[nH]3)cc2)CC1 [AEE-788]
- Kd [8]: > 30 µM (inactive)
- Kd [12]: > 30 µM (inactive)

Structure (SMILES): CC(=O)Nc1cccc(-n2c(=O)n(C3CC3)c(=O)c3c(Nc4ccc(I)cc4F)n(C)c(=O)c(C)c32)c1 [TRAMETINIB]
- Kd [10]: > 30 µM (inactive)
- Kd [13]: > 30 µM (inactive)
- Kd [7]: > 30 µM (inactive)
- Kd [1]: > 30 µM (inactive)
- Kd [2]: > 30 µM (inactive)

Structure (SMILES): O=C(O)[C@]1(Cc2cccc(Nc3nccs3)n2)CC[C@@H](Oc2cccc(Cl)c2F)CC1 [MK-5108]
- Kd [13]: > 30 µM (inactive)
- Kd [7]: > 30 µM (inactive)
- Kd [1]: 0.025 µM (active)
- Kd [2]: > 30 µM (inactive)

Structure (SMILES): Cc1ccc(NC(=O)c2ccc(CN3CC[C@H](N(C)C)C3)c(C(F)(F)F)c2)cc1Nc1nccc(-c2cncnc2)n1 [BAFETINIB]
- Kd [8]: > 30 µM (inactive)
- Kd [7]: > 30 µM (inactive)
- Kd [1]: > 30 µM (inactive)
- Kd [2]: > 30 µM (inactive)

Structure (SMILES): O=C(Nc1ccc(-c2ccnc(Nc3ccc(N4CCOCC4)cc3)n2)cc1)C1CCCN1 (centres undefined) [XL-019]
- Kd [8]: > 30 µM (inactive)

Structure (SMILES): O=C(c1ccc(F)c(F)c1Nc1ccc(I)cc1F)N1CC(O)([C@@H]2CCCCN2)C1 [COBIMETINIB]
- Kd [2]: > 30 µM (inactive)
- Kd [11]: > 30 µM (inactive)

Structure (SMILES): Cc1cc(-c2cc(O)ccc2Cl)cc2nnc(Nc3ccc(OCCN4CCCC4)cc3)nc12
- Kd [8]: > 30 µM (inactive)
- Kd [7]: > 30 µM (inactive)
- Kd [11]: > 30 µM (inactive)

Structure (SMILES): COc1cc(CCc2cc(NC(=O)c3ccc(N4C[C@@H](C)N[C@@H](C)C4)cc3)n[nH]2)cc(OC)c1 [AZD-4547]
- Kd [8]: > 30 µM (inactive)
- Kd [10]: > 30 µM (inactive)

Structure (SMILES): Cc1cc([C@@H](C)Nc2ccccc2C(=O)O)c2nc(N3CCOCC3)cc(=O)n2c1 [AZD-6482]
- Kd [2]: > 30 µM (inactive)

Source: ChEMBL document CHEMBL3991601, “The target landscape of clinical kinase drugs” (Science, 2017)
